Source: PMC8467136, “Enabling Efficient Folding and High-Resolution Crystallographic Analysis of Bracelet Cyclotides” (Molecules, 2021)
Bridge positions count the residues as written; N and C are the ends. Peptide text beside a SMILES is read from it.

Key:
HeLa cells = assay: Cytotoxicity against HeLa cells, resazurin assay; type: cell-based; settings: 5000 cells/well, 24-h incubation with peptide, then resazurin 18 h, triplicate, mean ± SEM
Procedure: To further confirm the activity of these mutants, their cytotoxicity against HeLa cancer cells was evaluated along with wild-type bracelet cyclotides. […] Of the four [I11G] mutants, the hyen D analogue had the highest activity, possibly because hyen D has one more hydrophobic residue in loop 3 compared to the other three cyclotides, which may contribute to its higher lipid-binding capacity (P/L max = 0.37) and help offset the hydrophobicity loss caused by the [I11G] mutation.
The cytotoxicity of the peptides was evaluated using the resazurin assay, as described previously. HeLa cells were seeded at 5000 cells/well in a 96-well, flat-bottomed plate one day prior to the experiments. Peptide solutions were prepared in water and incubated with HeLa cells at concentrations ranging from 16 to 0.125 μM or 8 to 0.063 μM in triplicate (final concentrations). Water and 1% Triton X-100 (TX) were applied as negative and positive control, respectively. After 24-h incubation, 10 μL of resazurin (0.05%, w/v) was added and incubated with cells for another 18 h. The absorbance was measured at 540 and 620 nm on a microplate reader (Infinite M1000 Pro microplate reader, Tecan, Switzerland). The percentage of cell death was quantified by calculating the absorbance ratio, R (R = absorbance at 620/540), and applying the following equation: % Cell death = (Rsample − RH2O)/(RTX − RH2O) × 100. Data were analyzed with GraphPad Prism software (version 8.3.1) using Specific binding with Hill slope algorithm.

[1] = tested on: POPC/POPE (80:20) model membrane; assay: Membrane binding to POPC/POPE lipid bilayers by surface plasmon resonance (SPR); settings: for P/L Max, peptide-to-lipid maximum binding value / Kd: BIAcore T200, L1 chip, POPC/POPE (80:20) bilayer, 10 mM HEPES, 150 mM NaCl; for P/L Max, peptide-to-lipid maximum binding value: pH 7.4, injection 180 s, dissociation 600 s, nonlinear regression; for Kd: pH 7.4, nonlinear regression, read-out: KD, peptide concentration required to achieve half-maximum binding at equilibrium
Text: Cyclotides are reported to exert their biological activities via membrane binding, particularly by selective binding to lipids containing phosphatidylethanolamine (PE) headgroups. Therefore, to evaluate the functional impact of the single mutation on bracelet cyclotides, the membrane-binding ability of these variants towards PE-containing lipid bilayers was examined using surface plasmon resonance (SPR). The model membrane comprising 80% 1-palmitoyloleoyl-phosphatidylcholine (POPC) and 20% 1-palmitoyloleoyl-phosphatidylethanolamine (POPE) was used. Binding affinity was evaluated by the peptide-to-lipid maximum binding value (P/L max, mol/mol) and the peptide concentration required to achieve half-maximum binding at equilibrium (KD value, μM). […] The negative effect of the [I11G] bracelet cyclotide mutation on lipid binding was expected, as the mutation reduces surface hydrophobicity, a previously reported determinant of membrane binding. The SPR dose-response curves and sensorgrams are shown in Figure S4 in Supplementary Material.
The binding affinity of bracelet cyclotides and their variants toward lipid bilayers was studied using SPR, as described previously. Two synthetic lipids, 1-palmitoyl-2-oleoyl-glycero-3-phosphocholine (POPC) and 1-palmitoyl-2-oleoyl-sn-glycero-3-phosphoethanolamine (POPE), were purchased from Avanti Polar Lipids (USA). Briefly, homogenous, small, unilamellar vesicles composed of POPC/POPE (80:20, mol/mol) were obtained by extruding the vesicle suspension through a 50-nm pore size polycarbonate membrane. L1 sensor chips and BIAcore T200 instrument were used (Cytiva, Marlborough, MA, USA). After the lipid was loaded and formed a bilayer membrane on the L1 chip, peptide solutions were injected over the lipid surface for 180 s and the dissociation was monitored for 600 s. Peptides were tested at concentrations ranging from 4–32 μM. Peptide-to-lipid molar ratio and KD values were calculated by nonlinear regression using GraphPad Prism software (version 8.3.1). Peptide solutions and lipid vesicles were prepared in HEPES buffer (10 mM HEPES, 150 mM NaCl, pH 7.4, filtered) for SPR studies.

Row | Compound | CC50 on HeLa (half maximum cytotoxic concentration) (HeLa cells) | P/L Max, peptide-to-lipid maximum binding value [1] | Kd [1] | Fold weaker affinity to membranes compared to parent peptide ([1]; POPC/POPE (80:20), compared with hyen D)
1 | CC[C@H](C)[C@@H]1NC(=O)[C@H](C)NC(=O)[C@H](CO)NC(=O)[C@H](CO)NC(=O)[C@H]([C@@H](C)CC)NC(=O)[C@@H]2CSSC[C@@H]3NC(=O)[C@H](C(C)C)NC(=O)[C@H](CCCCN)NC(=O)[C@H](CO)NC(=O)[C@H](CCCCN)NC(=O)[C@@H]4CSSC[C@H](NC(=O)[C@H](CO)NC(=O)[C@H](CCC(=O)O)NC(=O)CNC(=O)[C@H](CSSC[C@H](NC(=O)CNC1=O)C(=O)N[C@@H](CO)C(=O)N4)NC(=O)[C@@H]1CCCN1C(=O)[C@H]([C@@H](C)CC)NC(=O)CNC(=O)[C@H](CC(N)=O)NC(=O)[C@H](CCCNC(=N)N)NC(=O)[C@H](Cc1ccc(O)cc1)NC3=O)C(=O)N[C@@H](C(C)C)C(=O)N[C@@H](Cc1c[nH]c3ccccc13)C(=O)NCC(=O)N1CCC[C@H]1C(=O)N2 [[I11G]cyO2] (cyclo(AIGCSCKSKVCYRNGIPCGESCVWGPCISS); disulfide 4-18, 6-22, 11-27) | >64 µM | n.b. ^3 | – | –
2 | CC[C@H](C)[C@@H]1NC(=O)CNC(=O)[C@H](CC(N)=O)NC(=O)[C@H](CCCNC(=N)N)NC(=O)[C@H](Cc2ccc(O)cc2)NC(=O)[C@@H]2CSSC[C@@H]3NC(=O)[C@@H]4CCCN4C(=O)CNC(=O)[C@H](Cc4c[nH]c5ccccc45)NC(=O)[C@H](C(C)C)NC(=O)[C@@H]4CSSC[C@H](NC(=O)[C@H](CO)NC(=O)[C@H](CSSC[C@H](NC(=O)[C@@H]5CCCN5C1=O)C(=O)NCC(=O)N[C@@H](CCC(=O)O)C(=O)N[C@@H](CO)C(=O)N4)NC(=O)CNC(=O)[C@H](C(C)C)NC(=O)[C@H](C)NC(=O)[C@H](CO)NC(=O)[C@H]([C@@H](C)O)NC(=O)[C@H](CC(C)C)NC3=O)C(=O)N[C@@H](CCCCN)C(=O)N[C@@H](CO)C(=O)N[C@@H](CCCCN)C(=O)N[C@@H](C(C)C)C(=O)N2 [[I11G]cyO9] (cyclo(AVGCSCKSKVCYRNGIPCGESCVWGPCLTS); disulfide 4-18, 6-22, 11-27) | >64 µM | n.b. | – | –
3 | CC[C@H](C)[C@@H]1NC(=O)[C@H](C)NC(=O)[C@H](C)NC(=O)[C@H]([C@@H](C)O)NC(=O)[C@H](Cc2ccccc2)NC(=O)[C@@H]2CSSC[C@@H]3NC(=O)[C@H](C(C)C)NC(=O)[C@H](CCCCN)NC(=O)[C@H](CO)NC(=O)[C@H](CCCCN)NC(=O)[C@@H]4CSSC[C@H](NC(=O)[C@H](CO)NC(=O)[C@H](CCC(=O)O)NC(=O)CNC(=O)[C@H](CSSC[C@H](NC(=O)CNC1=O)C(=O)N[C@@H](CO)C(=O)N4)NC(=O)[C@@H]1CCCN1C(=O)[C@H](Cc1ccccc1)NC(=O)CNC(=O)[C@H](CC(N)=O)NC(=O)[C@H](CCCCN)NC(=O)[C@H](Cc1ccc(O)cc1)NC3=O)C(=O)N[C@@H](C(C)C)C(=O)N[C@@H](Cc1ccc(O)cc1)C(=O)NCC(=O)N1CCC[C@H]1C(=O)N2 [[I11G]hD] (cyclo(AAIGCSCKSKVCYKNGFPCGESCVYGPCFT); disulfide 5-19, 7-23, 12-28) | 50.2 ± 4.61 µM | 0.24 ± 0.01 mol/mol | 81 ± 7.91 µM | 18 fold
4 | CC[C@H](C)[C@@H]1NC(=O)[C@@H]2CSSC[C@@H]3NC(=O)[C@H](C(C)C)NC(=O)[C@H](CCCCN)NC(=O)[C@H](CC(=O)O)NC(=O)[C@H]([C@@H](C)O)NC(=O)[C@@H]4CSSC[C@H](NC(=O)[C@H](CO)NC(=O)[C@H](CCC(=O)O)NC(=O)CNC(=O)[C@H](CSSC[C@H](NC(=O)CNC(=O)[C@H]([C@@H](C)CC)NC(=O)[C@H](C(C)C)NC(=O)CNC(=O)[C@H](CO)NC1=O)C(=O)N[C@@H](CO)C(=O)N4)NC(=O)[C@@H]1CCCN1C(=O)[C@H]([C@@H](C)O)NC(=O)CNC(=O)[C@H](CC(N)=O)NC(=O)[C@H](CC(C)C)NC(=O)[C@H](Cc1ccc(O)cc1)NC3=O)C(=O)N[C@@H](C(C)C)C(=O)N[C@@H](Cc1ccc(O)cc1)C(=O)NCC(=O)N1CCC[C@H]1C(=O)N2 [[I11G]kB5] (cyclo(CGESCVYGPCISGVIGCSCTDKVCYLNGTP); disulfide 1-17, 5-19, 10-24) | >64 µM | n.b. | – | –
5 | CC[C@H](C)[C@@H]1NC(=O)[C@H](C)NC(=O)[C@H](CO)NC(=O)[C@H](CO)NC(=O)[C@H]([C@@H](C)CC)NC(=O)[C@@H]2CSSC[C@@H]3NC(=O)[C@H](C(C)C)NC(=O)[C@H](CCCCN)NC(=O)[C@H](CO)NC(=O)[C@H](CCCCN)NC(=O)[C@@H]4CSSC[C@H](NC(=O)[C@H](CO)NC(=O)[C@H](CCC(=O)O)NC(=O)CNC(=O)[C@H](CSSC[C@H](NC(=O)CNC1=O)C(=O)N[C@@H](CO)C(=O)N4)NC(=O)[C@@H]1CCCN1C(=O)[C@H]([C@@H](C)CC)NC(=O)CNC(=O)[C@H](CC(N)=O)NC(=O)[C@H](CCCNC(=N)N)NC(=O)[C@H](Cc1ccc(O)cc1)NC3=O)C(=O)N[C@@H](C(C)C)C(=O)N[C@@H](Cc1c[nH]c3ccccc13)C(=O)N[C@@H](CC(C)C)C(=O)N1CCC[C@H]1C(=O)N2 [[I11L]cyO2] (cyclo(AIGCSCKSKVCYRNGIPCGESCVWLPCISS); disulfide 4-18, 6-22, 11-27) | 0.95 ± 0.08 µM | 0.31 ± 0.01 mol/mol | 4.71 ± 0.17 µM | –
6 | CC[C@H](C)[C@@H]1NC(=O)CNC(=O)[C@H](CC(N)=O)NC(=O)[C@H](CCCNC(=N)N)NC(=O)[C@H](Cc2ccc(O)cc2)NC(=O)[C@@H]2CSSC[C@@H]3NC(=O)[C@@H]4CCCN4C(=O)[C@H](CC(C)C)NC(=O)[C@H](Cc4c[nH]c5ccccc45)NC(=O)[C@H](C(C)C)NC(=O)[C@@H]4CSSC[C@H](NC(=O)[C@H](CO)NC(=O)[C@H](CSSC[C@H](NC(=O)[C@@H]5CCCN5C1=O)C(=O)NCC(=O)N[C@@H](CCC(=O)O)C(=O)N[C@@H](CO)C(=O)N4)NC(=O)CNC(=O)[C@H](C(C)C)NC(=O)[C@H](C)NC(=O)[C@H](CO)NC(=O)[C@H]([C@@H](C)O)NC(=O)[C@H](CC(C)C)NC3=O)C(=O)N[C@@H](CCCCN)C(=O)N[C@@H](CO)C(=O)N[C@@H](CCCCN)C(=O)N[C@@H](C(C)C)C(=O)N2 [[I11L]cyO9] (cyclo(AVGCSCKSKVCYRNGIPCGESCVWLPCLTS); disulfide 4-18, 6-22, 11-27) | 1.06 ± 0.03 µM | 0.31 ± 0.00 mol/mol | 4.26 ± 0.06 µM | –
7 | CC[C@H](C)[C@@H]1NC(=O)[C@H](C)NC(=O)[C@H](C)NC(=O)[C@H]([C@@H](C)O)NC(=O)[C@H](Cc2ccccc2)NC(=O)[C@@H]2CSSC[C@@H]3NC(=O)[C@H](C(C)C)NC(=O)[C@H](CCCCN)NC(=O)[C@H](CO)NC(=O)[C@H](CCCCN)NC(=O)[C@@H]4CSSC[C@H](NC(=O)[C@H](CO)NC(=O)[C@H](CCC(=O)O)NC(=O)CNC(=O)[C@H](CSSC[C@H](NC(=O)CNC1=O)C(=O)N[C@@H](CO)C(=O)N4)NC(=O)[C@@H]1CCCN1C(=O)[C@H](Cc1ccccc1)NC(=O)CNC(=O)[C@H](CC(N)=O)NC(=O)[C@H](CCCCN)NC(=O)[C@H](Cc1ccc(O)cc1)NC3=O)C(=O)N[C@@H](C(C)C)C(=O)N[C@@H](Cc1ccc(O)cc1)C(=O)N[C@@H](CC(C)C)C(=O)N1CCC[C@H]1C(=O)N2 [[I11L]hD] (cyclo(AAIGCSCKSKVCYKNGFPCGESCVYLPCFT); disulfide 5-19, 7-23, 12-28) | 0.70 ± 0.02 µM | 0.36 ± 0.01 mol/mol | 4.39 ± 0.5 µM | –
